“And” between values parts separate entries of the source, which are not always exact repeats. Identical values can stand only once.
Test system: LNCaP xenograft tumor-bearing mice
Assay: Biodistribution of 225Ac-macropa-RPS-070 in LNCaP xenograft mice
Type: in vivo, mouse
Details: for Organ distribution, Blood, Mean / Organ distribution, Bone, Mean / Organ distribution, Heart, Mean / Organ distribution, Kidneys, Mean / Organ distribution, Large Intestine, Mean / Organ distribution, Liver, Mean / Organ distribution, Lungs, Mean / Organ distribution, Muscle, Mean / Organ distribution, Pancreas, Mean / Organ distribution, Small Intestine, Mean / Organ distribution, Spleen, Mean / Organ distribution, Stomach, Mean / Organ distribution, Tumor, Mean: n = 5
Procedure: Cell Culture. […] Cell culture supplies were from Invitrogen unless otherwise noted.
Inoculation of Mice with Xenografts. All animal studies were approved by the Institutional Animal Care and Use Committee of Weill Cornell Medicine and were undertaken in accordance with the guidelines set forth by the USPHS Policy on Humane Care and Use of Laboratory Animals. Animals were housed under standard conditions in approved facilities with 12 h light/dark cycles. Food and water was provided ad libitum throughout the course of the studies. Hairless male nu/nu mice were purchased from the Jackson Laboratory. For inoculation in mice, LNCaP cells were suspended at 4×10^7 cells/mL in a 1:1 mixture of PBS:Matrigel (BD Biosciences). Each mouse was injected in the left flank with 0.25 mL of the cell suspension. Biodistributions were conducted when tumors were in the range 100-400 mm^3.
Biodistribution of […] in LNCaP xenograft mice. Fifteen LNCaP xenograft tumor-bearing mice (5 per time point) were injected intravenously with a bolus injection of 85-95 kBq and 100 ng ([…]) of each ligand. The mice were sacrificed by cervical dislocation at 4, 24 and 96 h post injection. A blood sample was removed, and a full biodistribution study was conducted on the following organs (with contents): heart, lungs, liver, small intestine, large intestine, stomach, spleen, pancreas, kidneys, muscle, bone, and tumor. Tissues were weighed and counted on a 2470 Wizard Automatic Gamma Counter (Perkin Elmer). 1% ID/mL samples were counted prior to and following each set of tissue samples to enable decay correction to be undertaken. Counts were corrected for decay and for activity injected, and tissue uptake was expressed as percent injected dose per gram (% ID/g). Standard error measurement was calculated for each data point.

## O=C(O)CC[C@H](NC(=O)N[C@@H](CCCCNC(=O)Nc1cccc(-c2cn(CCOCCOCCOCCOCCOCCOCCC(=O)N[C@@H](CCCCNC(=S)Nc3cc(CN4CCOCCOCCN(Cc5cccc(C(=O)[O-])n5)CCOCCOCC4)nc(C(=O)[O-])c3)C(=O)N[C@@H](CCCCNC(=O)Cc3ccc(I)cc3)C(=O)O)nn2)c1)C(=O)O)C(=O)O.[225Ac+3] [225Ac-macropa-RPS-070]
4 h after i.v. injection
  Organ distribution, Blood, individual mice 1-5: 0.9065 % ID/g and 0.5525 % ID/g and 1.118 % ID/g and 0.8276 % ID/g and 0.6564 % ID/g
  Organ distribution, Bone, individual mice 1-5: 1.149 % ID/g and 1.123 % ID/g and 1.487 % ID/g and 0.9204 % ID/g and 1.155 % ID/g
  Organ distribution, Heart, individual mice 1-5: 0.7576 % ID/g and 0.6532 % ID/g and 0.774 % ID/g and 0.7515 % ID/g and 0.6565 % ID/g
  Organ distribution, Kidneys, individual mice 1-5: 65.5884 % ID/g and 20.5274 % ID/g and 108.233 % ID/g and 33.654 % ID/g and 33.0707 % ID/g
  Organ distribution, Large Intestine, individual mice 1-5: 1.363 % ID/g and 0.6516 % ID/g and 1.274 % ID/g and 0.9166 % ID/g and 0.819 % ID/g
  Organ distribution, Liver, individual mice 1-5: 1.622 % ID/g and 1.346 % ID/g and 1.742 % ID/g and 1.681 % ID/g and 1.3957 % ID/g
  Organ distribution, Lungs, individual mice 1-5: 0.9956 % ID/g and 0.6067 % ID/g and 1.2979 % ID/g and 0.9859 % ID/g and 0.8866 % ID/g
  Organ distribution, Muscle, individual mice 1-5: 0.6801 % ID/g and 0.8058 % ID/g and 0.7282 % ID/g and 0.6767 % ID/g and 0.6562 % ID/g
  Organ distribution, Pancreas, individual mice 1-5: 0.5549 % ID/g and 0.4164 % ID/g and 0.5532 % ID/g and 0.4675 % ID/g and 0.6604 % ID/g
  Organ distribution, Small Intestine, individual mice 1-5: 0.1998 % ID/g and 0.1628 % ID/g and 0.3104 % ID/g and 0.2441 % ID/g and 0.1709 % ID/g
  Organ distribution, Spleen, individual mice 1-5: 1.409 % ID/g and 0.708 % ID/g and 1.613 % ID/g and 1.108 % ID/g and 0.8756 % ID/g
  Organ distribution, Stomach, individual mice 1-5: 0.3396 % ID/g and 0.2471 % ID/g and 0.3042 % ID/g and 0.4109 % ID/g and 0.2122 % ID/g
  Organ distribution, Tumor, individual mice 1-5: 6.732 % ID/g and 10.7309 % ID/g and 23.8367 % ID/g and 15.3682 % ID/g and 7.504 % ID/g
  Organ distribution, Blood, Mean: 0.8122 % ID/g
  Organ distribution, Bone, Mean: 1.167 % ID/g
  Organ distribution, Heart, Mean: 0.7189 % ID/g
  Organ distribution, Kidneys, Mean: 52±16 % ID/g and 52.2146 % ID/g
  Organ distribution, Large Intestine, Mean: 1.005 % ID/g
  Organ distribution, Liver, Mean: 1.557 % ID/g
  Organ distribution, Lungs, Mean: 0.9469 % ID/g
  Organ distribution, Muscle, Mean: 0.7094 % ID/g
  Organ distribution, Pancreas, Mean: 0.5305 % ID/g
  Organ distribution, Small Intestine, Mean: 0.2176 % ID/g
  Organ distribution, Spleen, Mean: 1.143 % ID/g
  Organ distribution, Stomach, Mean: 0.3028 % ID/g
  Organ distribution, Tumor, Mean: 13±3 % ID/g and 12.8342 % ID/g
24 h after i.v. injection
  Organ distribution, Blood, individual mice 1-5: 0.3483 % ID/g and 0.3132 % ID/g and 0.2208 % ID/g and 0.2945 % ID/g and 0.277 % ID/g
  Organ distribution, Bone, individual mice 1-5: 1.273 % ID/g and 1.066 % ID/g and 0.8394 % ID/g and 1.006 % ID/g and 0.6976 % ID/g
  Organ distribution, Heart, individual mice 1-5: 0.5226 % ID/g and 0.5633 % ID/g and 0.4521 % ID/g and 0.4791 % ID/g and 0.4648 % ID/g
  Organ distribution, Kidneys, individual mice 1-5: 4.988 % ID/g and 4.257 % ID/g and 3.946 % ID/g and 3.665 % ID/g and 4.103 % ID/g
  Organ distribution, Large Intestine, individual mice 1-5: 0.133 % ID/g and 0.1259 % ID/g and 0.1325 % ID/g and 0.1343 % ID/g and 0.1318 % ID/g
  Organ distribution, Liver, individual mice 1-5: 1.578 % ID/g and 1.476 % ID/g and 1.138 % ID/g and 1.143 % ID/g and 1.485 % ID/g
  Organ distribution, Lungs, individual mice 1-5: 0.5378 % ID/g and 0.4508 % ID/g and 0.4608 % ID/g and 0.4286 % ID/g and 0.4483 % ID/g
  Organ distribution, Muscle, individual mice 1-5: 0.6119 % ID/g and 0.5149 % ID/g and 0.4483 % ID/g and 0.7803 % ID/g and 0.4458 % ID/g
  Organ distribution, Pancreas, individual mice 1-5: 0.3985 % ID/g and 0.3912 % ID/g and 0.5035 % ID/g and 0.3332 % ID/g and 0.3194 % ID/g
  Organ distribution, Small Intestine, individual mice 1-5: 0.08784 % ID/g and 0.09914 % ID/g and 0.08822 % ID/g and 0.09466 % ID/g and 0.1037 % ID/g
  Organ distribution, Spleen, individual mice 1-5: 0.6208 % ID/g and 0.6576 % ID/g and 0.6201 % ID/g and 0.5768 % ID/g and 0.5855 % ID/g
  Organ distribution, Stomach, individual mice 1-5: 0.1296 % ID/g and 0.1212 % ID/g and 0.1119 % ID/g and 0.1467 % ID/g and 0.1533 % ID/g
  Organ distribution, Tumor, individual mice 1-5: 11.6163 % ID/g and 9.269 % ID/g and 7.502 % ID/g and 4.414 % ID/g and 8.047 % ID/g
  Organ distribution, Blood, Mean: 0.2908 % ID/g
  Organ distribution, Bone, Mean: 0.9764 % ID/g
  Organ distribution, Heart, Mean: 0.4964 % ID/g
  Organ distribution, Kidneys, Mean: 4.192 % ID/g
  Organ distribution, Large Intestine, Mean: 0.1315 % ID/g
  Organ distribution, Liver, Mean: 1.364 % ID/g
  Organ distribution, Lungs, Mean: 0.4653 % ID/g
  Organ distribution, Muscle, Mean: 0.5603 % ID/g
  Organ distribution, Pancreas, Mean: 0.3891 % ID/g
  Organ distribution, Small Intestine, Mean: 0.09473 % ID/g
  Organ distribution, Spleen, Mean: 0.6122 % ID/g
  Organ distribution, Stomach, Mean: 0.1326 % ID/g
  Organ distribution, Tumor, Mean: 8.17 % ID/g
96 h after i.v. injection
  Organ distribution, Blood, individual mice 1-5: 0.1904 % ID/g and 0.1919 % ID/g and 0.1521 % ID/g and 0.1653 % ID/g and 0.2382 % ID/g
  Organ distribution, Bone, individual mice 1-5: 0.8639 % ID/g and 0.8687 % ID/g and 0.8383 % ID/g and 1.122 % ID/g and 0.8204 % ID/g
  Organ distribution, Heart, individual mice 1-5: 0.3994 % ID/g and 0.424 % ID/g and 0.4286 % ID/g and 0.4459 % ID/g and 0.456 % ID/g
  Organ distribution, Kidneys, individual mice 1-5: 1.303 % ID/g and 1.3239 % ID/g and 2.004 % ID/g and 1.399 % ID/g and 1.46 % ID/g
  Organ distribution, Large Intestine, individual mice 1-5: 0.04349 % ID/g and 0.09663 % ID/g and 0.04522 % ID/g and 0.04198 % ID/g and 0.03927 % ID/g
  Organ distribution, Liver, individual mice 1-5: 0.7941 % ID/g and 0.8144 % ID/g and 0.733 % ID/g and 0.7917 % ID/g and 0.7942 % ID/g
  Organ distribution, Lungs, individual mice 1-5: 0.3016 % ID/g and 0.5091 % ID/g and 0.4694 % ID/g and 0.3781 % ID/g and 0.3698 % ID/g
  Organ distribution, Muscle, individual mice 1-5: 0.3022 % ID/g and 0.5249 % ID/g and 0.2509 % ID/g and 0.2982 % ID/g and 0.2528 % ID/g
  Organ distribution, Pancreas, individual mice 1-5: 0.09848 % ID/g and 0.377 % ID/g and 0.3055 % ID/g and 0.3162 % ID/g and 0.3335 % ID/g
  Organ distribution, Small Intestine, individual mice 1-5: 0.04372 % ID/g and 0.0577 % ID/g and 0.03752 % ID/g and 0.04431 % ID/g and 0.04136 % ID/g
  Organ distribution, Spleen, individual mice 1-5: 0.4837 % ID/g and 0.394 % ID/g and 0.4426 % ID/g and 0.4348 % ID/g and 0.5397 % ID/g
  Organ distribution, Stomach, individual mice 1-5: 0.03442 % ID/g and 0.04708 % ID/g and 0.03448 % ID/g and 0.02845 % ID/g and 0.02366 % ID/g
  Organ distribution, Tumor, individual mice 1-5: 4.043 % ID/g and 4.078 % ID/g and 6.74 % ID/g and 4.581 % ID/g and 4.845 % ID/g
  Organ distribution, Blood, Mean: 0.1876 % ID/g
  Organ distribution, Bone, Mean: 0.9027 % ID/g
  Organ distribution, Heart, Mean: 0.4333 % ID/g
  Organ distribution, Kidneys, Mean: 1.4978 % ID/g
  Organ distribution, Large Intestine, Mean: 0.05332 % ID/g
  Organ distribution, Liver, Mean: 0.7855 % ID/g
  Organ distribution, Lungs, Mean: 0.4056 % ID/g
  Organ distribution, Muscle, Mean: 0.3258 % ID/g
  Organ distribution, Pancreas, Mean: 0.2861 % ID/g
  Organ distribution, Small Intestine, Mean: 0.04492 % ID/g
  Organ distribution, Spleen, Mean: 0.459 % ID/g
  Organ distribution, Stomach, Mean: 0.03362 % ID/g
  Organ distribution, Tumor, Mean: 4.857 % ID/g
96 h post injection
  uptake by other organs (other than kidneys and tumor): < 1 % ID/g
